{"source": "paper PMC5218480", "about": "(PLoS ONE, 2017)", "tested_on": "MV-4-11 cells", "assay": "Gene expression microarray analysis (Affymetrix PrimeView) and GSEA", "format": "cell-based, human", "parameters": "RFU PODN (11730768_x_at) / Fold change /veh PODN (11730768_x_at) / RFU LINC00158 (11744669_a_at) / Fold change /veh LINC00158 (11744669_a_at) / RFU DUSP10 (11751237_a_at) / Fold change /veh DUSP10 (11751237_a_at) / RFU ID3 (11757404_x_at) / Fold change /veh ID3 (11757404_x_at) / RFU PLEKHG5 (11737974_s_at) / Fold change /veh PLEKHG5 (11737974_s_at) / RFU LRRC4B (11730491_at) / Fold change /veh LRRC4B (11730491_at) / RFU GIMAP4 (11747438_a_at) / Fold change /veh GIMAP4 (11747438_a_at) / RFU KRT8 (11758183_x_at) / Fold change /veh KRT8 (11758183_x_at) / RFU CNN1 (11734310_a_at) / Fold change /veh CNN1 (11734310_a_at) / RFU VPS37D (11726825_at) / Fold change /veh VPS37D (11726825_at) / RFU C10orf10 (11716522_x_at) / Fold change /veh C10orf10 (11716522_x_at) / RFU KIR2DL2 /// KIR2DL4 /// KIR2DL5A /// KIR2DL5B /// KIR2DS1 /// KIR2DS2 /// KIR2DS3 /// KIR2DS4 /// KIR3DL3 /// KIR3DL3 /// KIR3DS1 (11738374_at) / Fold change /veh KIR2DL2 /// KIR2DL4 /// KIR2DL5A /// KIR2DL5B /// KIR2DS1 /// KIR2DS2 /// KIR2DS3 /// KIR2DS4 /// KIR3DL3 /// KIR3DL3 /// KIR3DS1 (11738374_at) / RFU C1QL1 (11718748_at) / Fold change /veh C1QL1 (11718748_at) / RFU TMPRSS4 (11747572_a_at) / Fold change /veh TMPRSS4 (11747572_a_at) / RFU HAMP (11756126_x_at) / Fold change /veh HAMP (11756126_x_at) / RFU RNFT2 (11725882_a_at) / Fold change /veh RNFT2 (11725882_a_at) / RFU NR4A2 (11747474_a_at) / Fold change /veh NR4A2 (11747474_a_at) / RFU ABCC12 (11746883_a_at) / Fold change /veh ABCC12 (11746883_a_at) / RFU TMEM136 (11760407_x_at) / Fold change /veh TMEM136 (11760407_x_at) / RFU CLDN22 /// WWC2 (11732394_at) / Fold change /veh CLDN22 /// WWC2 (11732394_at) / RFU HLA-DPB1 (11760878_x_at) / Fold change /veh HLA-DPB1 (11760878_x_at) / RFU SPINT1 (11716480_a_at) / Fold change /veh SPINT1 (11716480_a_at) / RFU GAP43 (11754022_s_at) / Fold change /veh GAP43 (11754022_s_at) / RFU A4GNT (11735810_at) / Fold change /veh A4GNT (11735810_at) / RFU PRB3 (11715151_x_at) / Fold change /veh PRB3 (11715151_x_at) / RFU TUBB4B (11761932_at) / Fold change /veh TUBB4B (11761932_at) / RFU CAPN14 (11732068_a_at) / Fold change /veh CAPN14 (11732068_a_at) / RFU TMCC2 (11721928_a_at) / Fold change /veh TMCC2 (11721928_a_at) / RFU IRGQ (11745062_a_at) / Fold change /veh IRGQ (11745062_a_at) / RFU FAM174B (11720279_a_at) / Fold change /veh FAM174B (11720279_a_at) / RFU TMPRSS4 (11748680_a_at) / Fold change /veh TMPRSS4 (11748680_a_at) / RFU FAM212B (11763350_a_at) / Fold change /veh FAM212B (11763350_a_at) / RFU PLEKHG5 (11743358_a_at) / Fold change /veh PLEKHG5 (11743358_a_at) / RFU ZSCAN30 (11745921_a_at) / Fold change /veh ZSCAN30 (11745921_a_at) / RFU CMKLR1 (11741424_a_at) / Fold change /veh CMKLR1 (11741424_a_at) / RFU LOC101060620 /// MAPK8IP1 (11723275_at) / Fold change /veh LOC101060620 /// MAPK8IP1 (11723275_at) / RFU SPTSSB (11747773_x_at) / Fold change /veh SPTSSB (11747773_x_at) / RFU PRSS12 (11739890_at) / Fold change /veh PRSS12 (11739890_at) / RFU BIN1 (11741810_x_at) / Fold change /veh BIN1 (11741810_x_at) / RFU WNT11 (11732464_a_at) / Fold change /veh WNT11 (11732464_a_at) / RFU C10orf10 (11716521_a_at) / Fold change /veh C10orf10 (11716521_a_at) / RFU C5orf56 (11738089_at) / Fold change /veh C5orf56 (11738089_at) / RFU CYB561 (11721691_x_at) / Fold change /veh CYB561 (11721691_x_at) / RFU ANKRD19P (11752326_a_at) / Fold change /veh ANKRD19P (11752326_a_at) / RFU OR2T12 /// OR2T33 /// OR2T8 (11738714_s_at) / Fold change /veh OR2T12 /// OR2T33 /// OR2T8 (11738714_s_at) / RFU VCAN (11748164_a_at) / Fold change /veh VCAN (11748164_a_at) / RFU JSRP1 (11732532_at) / Fold change /veh JSRP1 (11732532_at) / RFU KRTAP10-11 (11738290_x_at) / Fold change /veh KRTAP10-11 (11738290_x_at) / RFU MYO3A (11730013_a_at) / Fold change /veh MYO3A (11730013_a_at) / RFU EBF3 (11725865_a_at) / Fold change /veh EBF3 (11725865_a_at) / RFU CAMK2N1 (11719241_x_at) / Fold change /veh CAMK2N1 (11719241_x_at) / RFU C5orf56 (11738088_a_at) / Fold change /veh C5orf56 (11738088_a_at) / RFU OLFML3 (11715873_a_at) / Fold change /veh OLFML3 (11715873_a_at) / RFU LOC100653217 /// NTM (11731650_a_at) / Fold change /veh LOC100653217 /// NTM (11731650_a_at) / RFU MAPK11 (11762145_a_at) / Fold change /veh MAPK11 (11762145_a_at) / RFU FIZ1 (11724087_x_at) / Fold change /veh FIZ1 (11724087_x_at) / RFU OASL (11726364_x_at) / Fold change /veh OASL (11726364_x_at) / RFU SOX15 (11748057_x_at) / Fold change /veh SOX15 (11748057_x_at) / RFU CD79A (11719716_a_at) / Fold change /veh CD79A (11719716_a_at) / RFU HIST1H1D (11736915_at) / Fold change /veh HIST1H1D (11736915_at) / RFU CASKIN2 (11723855_a_at) / Fold change /veh CASKIN2 (11723855_a_at) / RFU LOC730098 (11760151_x_at) / Fold change /veh LOC730098 (11760151_x_at) / RFU OR4N2 (11742367_at) / Fold change /veh OR4N2 (11742367_at) / RFU PRRT2 (11749266_a_at) / Fold change /veh PRRT2 (11749266_a_at) / RFU SNX32 (11753110_a_at) / Fold change /veh SNX32 (11753110_a_at) / RFU CDHR5 (11726645_a_at) / Fold change /veh CDHR5 (11726645_a_at) / RFU RCAN1 (11760418_a_at) / Fold change /veh RCAN1 (11760418_a_at) / RFU FAM167A (11723789_a_at) / Fold change /veh FAM167A (11723789_a_at) / RFU FAM26E (11764081_at) / Fold change /veh FAM26E (11764081_at) / RFU ISYNA1 (11749810_s_at) / Fold change /veh ISYNA1 (11749810_s_at) / RFU ACY1 (11761880_at) / Fold change /veh ACY1 (11761880_at) / RFU 11764098_at / Fold change /veh 11764098_at / RFU SAMD14 (11745864_x_at) / Fold change /veh SAMD14 (11745864_x_at) / RFU NPB (11741838_a_at) / Fold change /veh NPB (11741838_a_at) / RFU TMPRSS6 (11731388_a_at) / Fold change /veh TMPRSS6 (11731388_a_at) / RFU KRTAP10-2 (11738614_at) / Fold change /veh KRTAP10-2 (11738614_at) / RFU ARHGAP8 /// PRR5-ARHGAP8 (11727945_x_at) / Fold change /veh ARHGAP8 /// PRR5-ARHGAP8 (11727945_x_at) / RFU KRTAP5-7 /// NADSYN1 (11734609_at) / Fold change /veh KRTAP5-7 /// NADSYN1 (11734609_at) / RFU RASL12 (11751679_a_at) / Fold change /veh RASL12 (11751679_a_at) / RFU CDKN2B (11736163_a_at) / Fold change /veh CDKN2B (11736163_a_at) / RFU PRF1 (11729649_at) / Fold change /veh PRF1 (11729649_at) / RFU, ZNF638 /// ZNF638-IT1 / Fold change vs veh, ZNF638 /// ZNF638-IT1 / RFU, PANK3 / Fold change vs veh, PANK3 / RFU, SH3YL1 / Fold change vs veh, SH3YL1 / RFU, ZEB2 / Fold change vs veh, ZEB2 / RFU, NRIP1 / Fold change vs veh, NRIP1 / RFU, PTTG1IP / Fold change vs veh, PTTG1IP / RFU, CAPN2 / Fold change vs veh, CAPN2 / RFU, MED14 / Fold change vs veh, MED14 / RFU, SNORA58 / Fold change vs veh, SNORA58 / RFU, C1orf63 / Fold change vs veh, C1orf63 / RFU, LRRFIP1 / Fold change vs veh, LRRFIP1 / RFU, NDUFAF7 / Fold change vs veh, NDUFAF7 / RFU, SLC12A2 / Fold change vs veh, SLC12A2 / RFU, IBTK / Fold change vs veh, IBTK / RFU, ESF1 / Fold change vs veh, ESF1 / Fold change vs veh, TMEM50B / RFU, TAOK1 / Fold change vs veh, TAOK1 / RFU, ACBD3 / Fold change vs veh, ACBD3 / RFU, TMA16 / Fold change vs veh, TMA16 / RFU, RWDD3 / Fold change vs veh, RWDD3 / RFU, BCAT1 / Fold change vs veh, BCAT1 / RFU, EDEM3 / Fold change vs veh, EDEM3 / RFU, TMEM33 / Fold change vs veh, TMEM33 / RFU, WDR75 / Fold change vs veh, WDR75 / RFU, AHCTF1 / Fold change vs veh, AHCTF1 / RFU, TFRC / Fold change vs veh, TFRC / RFU, ZDHHC17 / Fold change vs veh, ZDHHC17 / RFU, NOM1 / Fold change vs veh, NOM1 / RFU, ARL8B / Fold change vs veh, ARL8B / RFU, ZBTB11 / Fold change vs veh, ZBTB11 / RFU, TAMM41 / Fold change vs veh, TAMM41 / RFU, KIAA1704 /// LOC100996395 / Fold change vs veh, KIAA1704 /// LOC100996395 / RFU, ING1 / Fold change vs veh, ING1 / RFU, TRMT61B / Fold change vs veh, TRMT61B / RFU, FUBP3 / Fold change vs veh, FUBP3 / RFU, TP53 / Fold change vs veh, TP53 / RFU, TNKS2 / Fold change vs veh, TNKS2 / RFU, ZFP14 / Fold change vs veh, ZFP14 / RFU, ACTR2 / Fold change vs veh, ACTR2 / RFU, PPP3R1 / Fold change vs veh, PPP3R1 / RFU, PIK3R1 / Fold change vs veh, PIK3R1 / RFU, HNRNPA1 / Fold change vs veh, HNRNPA1 / RFU, RNF170 / Fold change vs veh, RNF170 / RFU, ZNF28 / Fold change vs veh, ZNF28 / RFU, RNGTT / Fold change vs veh, RNGTT / RFU, OGT / Fold change vs veh, OGT / RFU, BRD1 / Fold change vs veh, BRD1 / RFU, MARS / Fold change vs veh, MARS / RFU, ZNF655 / Fold change vs veh, ZNF655 / RFU, FAHD1 / Fold change vs veh, FAHD1 / RFU, BDP1 / Fold change vs veh, BDP1 / RFU, LRRCC1 / Fold change vs veh, LRRCC1 / RFU, ARID1A / Fold change vs veh, ARID1A / RFU, ZNF146 / Fold change vs veh, ZNF146 / RFU, ZNF330 / Fold change vs veh, ZNF330 / RFU, GPN3 / Fold change vs veh, GPN3 / RFU, C9orf123 / Fold change vs veh, C9orf123 / RFU, N4BP2L2 / Fold change vs veh, N4BP2L2 / RFU, ARFIP1 / Fold change vs veh, ARFIP1 / RFU, FAM179B / Fold change vs veh, FAM179B / RFU, BCL10 / Fold change vs veh, BCL10 / RFU, UHRF1BP1L / Fold change vs veh, UHRF1BP1L / RFU, BET1 / Fold change vs veh, BET1 / RFU, CNOT2 / Fold change vs veh, CNOT2 / RFU, ZNF268 / Fold change vs veh, ZNF268 / Fold change vs veh, ZNF507 / RFU, DGCR2 / Fold change vs veh, DGCR2 / RFU, WDSUB1 / Fold change vs veh, WDSUB1 / Fold change vs veh, HSP90B1 /// MIR3652 / RFU, ADSS / Fold change vs veh, ADSS / RFU, GK / Fold change vs veh, GK / RFU, ZNF148 / Fold change vs veh, ZNF148 / RFU, TAF9 / Fold change vs veh, TAF9 / RFU, SLC1A5 / Fold change vs veh, SLC1A5 / RFU, SLMO2 / Fold change vs veh, SLMO2 / RFU, ABCC4 / Fold change vs veh, ABCC4 / RFU, LOC101060439 /// RAP1B / Fold change vs veh, LOC101060439 /// RAP1B / RFU, RFX7 / Fold change vs veh, RFX7 / RFU, GTPBP10 / Fold change vs veh, GTPBP10 / RFU, CNEP1R1 / Fold change vs veh, CNEP1R1 / RFU, BIVM-ERCC5 /// ERCC5 / Fold change vs veh, BIVM-ERCC5 /// ERCC5 / RFU, ILF3 / Fold change vs veh, ILF3 / RFU 11762660_at / Fold change /veh 11762660_at / RFU VCAN (11757783_s_at) / Fold change /veh VCAN (11757783_s_at) / RFU DDX43 (11728927_at) / Fold change /veh DDX43 (11728927_at) / RFU KRT8 (11758188_x_at) / Fold change /veh KRT8 (11758188_x_at) / RFU NKD1 (11759106_at) / Fold change /veh NKD1 (11759106_at) / RFU SRD5A1 (11742802_a_at) / Fold change /veh SRD5A1 (11742802_a_at) / RFU TPSAB1 /// TPSB2 (11721975_s_at) / Fold change /veh TPSAB1 /// TPSB2 (11721975_s_at) / RFU GSTM3 (11746129_a_at) / Fold change /veh GSTM3 (11746129_a_at) / RFU IL23R (11737362_x_at) / Fold change /veh IL23R (11737362_x_at) / RFU TMEM51 (11727254_a_at) / Fold change /veh TMEM51 (11727254_a_at) / RFU PIWIL2 (11732686_x_at) / Fold change /veh PIWIL2 (11732686_x_at) / RFU ORM1 (11744905_x_at) / Fold change /veh ORM1 (11744905_x_at) / RFU CCDC152 (11743942_at) / Fold change /veh CCDC152 (11743942_at) / RFU ECM1 (11717891_a_at) / Fold change /veh ECM1 (11717891_a_at) / RFU IL23R (11748794_a_at) / Fold change /veh IL23R (11748794_a_at) / RFU TNFAIP8L3 (11732012_x_at) / Fold change /veh TNFAIP8L3 (11732012_x_at) / RFU MBOAT4 (11741988_at) / Fold change /veh MBOAT4 (11741988_at) / RFU 11764193_at / Fold change /veh 11764193_at / RFU TMEM53 (11763286_at) / Fold change /veh TMEM53 (11763286_at) / RFU MAGEB2 (11727129_at) / Fold change /veh MAGEB2 (11727129_at) / RFU TMEM200A (11744735_a_at) / Fold change /veh TMEM200A (11744735_a_at) / RFU CCDC152 (11751479_a_at) / Fold change /veh CCDC152 (11751479_a_at) / RFU FAM211A (11726209_a_at) / Fold change /veh FAM211A (11726209_a_at) / RFU RGS16 (11746705_a_at) / Fold change /veh RGS16 (11746705_a_at) / RFU VCAN (11755009_s_at) / Fold change /veh VCAN (11755009_s_at) / RFU RHOB (11743442_s_at) / Fold change /veh RHOB (11743442_s_at) / RFU RGS16 (11720943_a_at) / Fold change /veh RGS16 (11720943_a_at) / RFU RGS16 (11720944_at) / Fold change /veh RGS16 (11720944_at) / RFU, VPS4B / Fold change vs veh, VPS4B / RFU, CREB1 / Fold change vs veh, CREB1 / RFU, DNAJC13 / Fold change vs veh, DNAJC13 / RFU, GNAQ / Fold change vs veh, GNAQ / RFU, CDK5R1 / Fold change vs veh, CDK5R1 / RFU, ZRANB3 / Fold change vs veh, ZRANB3 / RFU, CUL4A / Fold change vs veh, CUL4A / RFU, CCNY / Fold change vs veh, CCNY / RFU, UFL1 / Fold change vs veh, UFL1 / RFU, COG3 / Fold change vs veh, COG3 / RFU, DIAPH2 / Fold change vs veh, DIAPH2 / RFU, SKA2 / Fold change vs veh, SKA2 / RFU, AFF3 / Fold change vs veh, AFF3 / RFU, LMF1 / Fold change vs veh, LMF1 / RFU, IPO11 / Fold change vs veh, IPO11 / RFU, DFFB / Fold change vs veh, DFFB / RFU, FOXP1 / Fold change vs veh, FOXP1 / RFU, CARD8 / Fold change vs veh, CARD8 / RFU, STRN3 / Fold change vs veh, STRN3 / RFU, ADK / Fold change vs veh, ADK / RFU, RASSF2 / Fold change vs veh, RASSF2 / RFU, WIPF1 / Fold change vs veh, WIPF1 / RFU, LARP1B / Fold change vs veh, LARP1B / RFU, RASA1 / Fold change vs veh, RASA1 / RFU, RB1 / Fold change vs veh, RB1 / RFU, PPFIA1 / Fold change vs veh, PPFIA1 / RFU, MAT2A / Fold change vs veh, MAT2A / RFU, CCT5 / Fold change vs veh, CCT5 / RFU, WDR92 / Fold change vs veh, WDR92 / RFU, CUX1 / Fold change vs veh, CUX1 / RFU, TTC7A / Fold change vs veh, TTC7A / RFU, TMEM135 / Fold change vs veh, TMEM135 / RFU, DEPTOR / Fold change vs veh, DEPTOR / RFU, CPM / Fold change vs veh, CPM / RFU, DNAJB6 / Fold change vs veh, DNAJB6 / RFU, CACNA2D3 / Fold change vs veh, CACNA2D3 / RFU, DTX4 / Fold change vs veh, DTX4 / RFU, TFCP2 / Fold change vs veh, TFCP2 / RFU, GMCL1 /// GMCL1P1 / Fold change vs veh, GMCL1 /// GMCL1P1 / RFU, AEBP2 / Fold change vs veh, AEBP2 / RFU, SNHG1 /// SNORD22 /// SNORD25 /// SNORD26 /// SNORD27 /// SNORD28 /// SNORD29 /// SNORD31 / Fold change vs veh, SNHG1 /// SNORD22 /// SNORD25 /// SNORD26 /// SNORD27 /// SNORD28 /// SNORD29 /// SNORD31 / Fold change (Aza/veh), C12orf56 (ProbeSet 11735607_a_at) / Fold change (ACY-1035/veh), C12orf56 (ProbeSet 11735607_a_at) / Fold change (Aza/veh), FGFR1OP (ProbeSet 11751329_s_at) / Fold change (ACY-1035/veh), FGFR1OP (ProbeSet 11751329_s_at) / Fold change (Aza/veh), VPS36 (ProbeSet 11739960_a_at) / Fold change (ACY-1035/veh), VPS36 (ProbeSet 11739960_a_at) / RFU SYPL1 (11715823_x_at) / Fold change /veh SYPL1 (11715823_x_at) / RFU IGFBP7 (11715501_s_at) / Fold change /veh IGFBP7 (11715501_s_at) / RFU REEP3 (11722064_at) / Fold change /veh REEP3 (11722064_at) / RFU IGLL1 (11728026_x_at) / Fold change /veh IGLL1 (11728026_x_at): dose or concentration left out as unconfirmed", "details": "MV-4-11 cells, 48 hours", "data": [{"smiles": "Nc1ccc(-c2cccs2)cc1NC(=O)c1ccc2c(c1)cc(C1CC1)n2CCN1CCOCC1", "note": "[ACY-1035]", "values": [{"measurement": "Fold change /veh RNFT2 (11725882_a_at)", "value": 1.00}]}]}
